The subject of test [1] is HEp-2. Nature of the test: Inhibitory concentration was measured against human HEp2 cells; upon exposure to light (1 J/cm**2). The class given is functional, cell-based. As to conditions: HEp-2, light or radiation study.
In the next test the test system is V79. Put plainly: Percent of cell viability for the compound was measured in hamster V79 cells. The class given is functional, Cricetulus griseus.
The test system of a further test is HEp2 (human). Put plainly: Inhibitory concentration was measured against human HEp2 cells; upon exposure to light (1 J/cm**2). The following applies: HEp2, light or radiation study.
Test [2] has as its system HEp-2. Nature of the test: Percent of cell viability for the compound was measured in human HEp2 cells. In kind it is functional.

As usually defined, the IC50 is the concentration that inhibits the measured activity by half. Higher therefore signals weaker potency in that assay.

In the case of `O=C([O-])c1cc(Oc2cc3c(cc2Oc2cc(C(=O)[O-])cc(C(=O)O)c2)-c2nc-3nc3[nH]c(nc4nc(nc5[nH]c(n2)c2cc(Oc6cc(C(=O)[O-])cc(C(=O)[O-])c6)c(Oc6cc(C(=O)[O-])cc(C(=O)O)c6)cc52)-c2cc(Oc5cc(C(=O)[O-])cc(C(=O)O)c5)c(Oc5cc(C(=O)[O-])cc(C(=O)O)c5)cc2-4)c2cc(Oc4cc(C(=O)[O-])cc(C(=O)O)c4)c(Oc4cc(C(=O)[O-])cc(C(=O)[O-])c4)cc32)cc(C(=O)[O-])c1.[Na+].[Na+].[Na+].[Na+].[Na+].[Na+].[Na+].[Na+].[Na+].[Zn+2]`, the IC50 with HEp-2 [1] and in the test with HEp2 (human) was 4.5 µM throughout. The Viability in the test on V79 and in the test with HEp-2 [2] was 80% throughout.
Consider `O=C([O-])c1cc(Oc2cc3c(cc2Oc2cc(C(=O)[O-])cc(C(=O)[O-])c2)-c2nc-3nc3[nH]c(nc4nc(nc5[nH]c(n2)c2cc(Oc6cc(C(=O)[O-])cc(C(=O)[O-])c6)c(Oc6cc(C(=O)[O-])cc(C(=O)[O-])c6)cc52)-c2cc(Oc5cc(C(=O)[O-])cc(C(=O)[O-])c5)c(Oc5cc(C(=O)[O-])cc(C(=O)[O-])c5)cc2-4)c2cc(Oc4cc(C(=O)[O-])cc(C(=O)[O-])c4)c(Oc4cc(C(=O)[O-])cc(C(=O)[O-])c4)cc32)cc(C(=O)[O-])c1.[Na+].[Na+].[Na+].[Na+].[Na+].[Na+].[Na+].[Na+].[Na+].[Na+].[Na+].[Na+].[Na+].[Na+].[Na+].[Na+].[Zn]`, for which the Viability with V79 and with HEp-2 [2] was 80% in each case.
Regarding `O=C(O)c1cc(Oc2cc3c(cc2Oc2cc(C(=O)O)cc(C(=O)O)c2)-c2nc-3nc3[n-]c(nc4nc(nc5[n-]c(n2)c2cc(Oc6cc(C(=O)O)cc(C(=O)O)c6)c(Oc6cc(C(=O)O)cc(C(=O)O)c6)cc52)-c2cc(Oc5cc(C(=O)O)cc(C(=O)O)c5)c(Oc5cc(C(=O)O)cc(C(=O)O)c5)cc2-4)c2cc(Oc4cc(C(=O)O)cc(C(=O)O)c4)c(Oc4cc(C(=O)O)cc(C(=O)O)c4)cc32)cc(C(=O)O)c1.[Zn+2]`, the results for the Viability with V79 and with HEp-2 [2] were above 80% and 80%, respectively.
